Experimental findings from BindingDB's records for patent US20230322706 (Lg Chem, 2023) are described below.

This assay concerns the target T1, Diacylglycerol O-acyltransferase 2 (Homo sapiens, UniProt Q96PD7).
T1 sequence (Q96PD7 whole entry): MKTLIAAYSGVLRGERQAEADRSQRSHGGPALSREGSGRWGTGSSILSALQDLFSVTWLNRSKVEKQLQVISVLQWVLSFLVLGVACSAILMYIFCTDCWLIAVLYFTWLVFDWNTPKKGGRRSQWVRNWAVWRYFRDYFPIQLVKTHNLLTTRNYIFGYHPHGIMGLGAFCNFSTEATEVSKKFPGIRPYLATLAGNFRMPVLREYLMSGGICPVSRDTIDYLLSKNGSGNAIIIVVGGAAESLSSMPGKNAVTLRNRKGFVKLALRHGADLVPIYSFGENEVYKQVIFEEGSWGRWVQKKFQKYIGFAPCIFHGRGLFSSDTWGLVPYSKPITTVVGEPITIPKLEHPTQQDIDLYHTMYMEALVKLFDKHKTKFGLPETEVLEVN
As to the kind of experiment: Measurement of Inhibitory Effect Against DGAT2 Enzyme Activity. The procedure:
1. […] In order to prepare the pBacPAK9-DGAT2, which is DGAT2 expression vector, the human DGAT2 gene amplified by polymerase chain reaction (PCR) was cloned into the EcoR1 and Xho1 sites of the pBacPAK9 (clonctech) vector. The nucleotide sequence of the primers used in PCR was the forward primer 5′ […] […] and the reverse primer 5′ […]. The composition of the reaction solution was to contain 50 ng of cDNA clone (OriGene), 200 μM of dATP, dCTP, dTTP, dGTP, 200 nM of each primer, 1 unit of Tag DNA Polymerase (Toyobo), 1x PCR buffer, and the final volume was adjusted to 20 μl. The reaction conditions were denatured at 95° C. for 5 minutes, followed by 30 times of 94° C. for 20 seconds, 60° C. for 20 seconds, and 72° C. for 90 seconds, followed by further reaction at 72° C. for 7 minutes. 2. […] Recombinant human DGAT2 protein was expressed in Sf-21 cells, which are insect cells, by using the BacPack baculovirus expression system (Clontech). The brief manufacturing process is as follows. First, the pBacPAK9-DGAT2 expression vector was transfected with BacPAK6 virus DNA (Bsu36I digest) into sf21 cells using Bacfectin to prepare a recombinant DGAT2 expressing baculovirus. The thus prepared baculovirus was infected with Sf-21 cells at 10 MOI (multiplicity of infection), and after 72 hours, infected insect cells were collected and membrane proteins were isolated. […] Protein concentration was quantified by using the BCA Protein Assay Kit (Thermo Scientific). […] The next day, the amplified scintillation signal (cpm) in Topcounter (Packard) was measured to measure the degree of production of [14C]-labeled triacyl glycerol (TG) as a reaction product. The measured value when the compound was not treated was used as a positive control, and the measured value of the compound treated group was calculated as a relative % to measure the inhibition effect of the compound on TG production.
As usually defined, the IC50 is the midpoint of a concentration-inhibition curve. `CCOC(=O)C(F)(F)c1ccc(CC(=O)Nc2cncc(-c3cncc(Oc4ccccc4OCC)c3)n2)cc1` [US20230322706, Example 6] displayed an IC50 of 120 nM.
Turning to `CCOc1ccccc1Oc1cccc(-c2cncc(NC(=O)Cc3ccc(C(F)(F)C(=O)O)cc3)n2)c1` [US20230322706, Example 14], 3100 nM corresponded to half-maximal inhibition (IC50).
For the molecule `CCOc1ccccc1Oc1cccc(-c2cncc(NC(=O)/C=C/c3ccc(C(C)(C)C(=O)O)cc3)n2)c1` [US20230322706, Example 17], the IC50 was 240 nM.
